According to US11479622B2, “Active energy ray curable composition, active energy ray curable ink, composition accommodating container, two or three dimensional image forming apparatus, two or three dimensional image forming method, cured matter, decorative matter, artificial nail composition, nail decorative material, and …” (priority 2019, dated 2022):
Like-named read-outs stand apart in the source and are kept apart here.

Columns and labels:
female mice = system: female mice
Procedure: According to the skin sensitization test based on the Local Lymph Node Assay (LLNA), the SI value was measured in the following manner.
As positive control material, α-hexylcinnamaldehyde (HCA; product of Wako Pure Chemical Industries, Ltd.) was used.
As a medium, a liquid mixture containing acetone (product of Wako Pure Chemical Industries, Ltd.) and olive oil (product of Fudimi Pharmaceutical Co., Ltd.) in a volume ratio of 4 to 1 was used.
Before the test, female mice were acclimated about the test substances, the positive control, the medium control for 8 days including 6-day quarantine.
Based on the body weights measured two days before the initiation of sensitization, they were categorized into two groups (four mice/group) by the body weight stratified random sampling method so that the body weight of each individual was within ±20 percent of the average body weight of all the individuals. Each of the animals for the test was eight to nine weeks old at the time of the initiation of sensitization. The individuals remaining after the categorization were excluded from the test.
The test substance was weighed in a measuring flask, and the volume of the test substance was adjusted to 1 mL with the medium. The thus-prepared test substance preparation was placed in a light-shielded airtight container (made of glass).
Prepared liquids and media of each of the test substance and positive control substance were applied to both auricles of the animal in an amount of 25 μL of each. A micropipettor was used for application. This treatment was performed once a day for three consecutive days.
About 48 hours after the final sensitization, the BrdU preparation liquid (0.5 mL) was intraperitoneally administered once to each of the animals.
About 24 hours after the administration of BrdU, the tested animals were allowed to undergo euthanasia, and their auricular lymph nodes were sampled. The surrounding tissue of each auricular lymph node was removed, and the auricular lymph nodes from both the auricles were collectively weighed. Also, the average and standard error of the weights of the auricular lymph nodes were calculated for each group. After the measurement of the weights, the auricular lymph nodes of each individual were stored in a frozen state using a biomedical freezer set to −20 degrees C.
After returning the auricular lymph nodes to room temperature, the auricular lymph nodes were mashed with the gradual addition of physiological saline, and suspended therein. The thus-obtained suspension was filtrated and thereafter dispensed into the wells of a 96-well microplate, with 3 wells being used per individual. The thus-dispensed suspensions were measured for intake of BrdU by the ELISA method. The reagents used were those of a commercially available kit (Cell Proliferation ELISA, BrdU colorimetric, Cat. No. 1647229, product of Roche Diagnostics Inc.). A multiplate reader (FLUOSTAR OPTIMA, product of BMG LABTECH Inc.) was used to measure the absorbance of each well (OD: 370 nm to 492 nm, the intake of BrdU), and the average of the absorbance of the 3 wells for each individual was used as the measurement of BrdU for the individual.
As shown in the following formula, the measurement of BrdU intake for each individual was divided by the average of the measurements of BrdU intake in the vehicle control group to calculate the SI value for the individual. The SI value of each test group was the average of the SI values of the individuals. […] SI=(Average (average of 3 well) of BrdU measuring value of individual)/(Average (average of four animals) of BrdU measuring value of medium control group) Relation 1

[1] = assay type: cell-based; details: OECD test guideline TG471 (±S9mix)
[2] = in vivo
[3] = Oral toxicity according to OECD Test Guideline TG423; assay type: in vivo
[4] = LLNA, BrdU intake by ELISA, mice, test substance 50.0 w/v percent in acetone/olive oil 4:1, 25 μL per auricle once per day × 3 days

| Compound | SI (stimulation index) (female mice; female, mouse, in vivo, 3 days) | SI (stimulation index) (female mice; [4]) | further results |
| --- | --- | --- | --- |
| C=CC(=O)N(C)[C@@H](C)C(=O)OC [Example A1-4, N-acryloyl-N-methyl alanine methyl ester] | (See Synthesis Example 4) SI = 1.12 |  |  |
| Isobornyl acrylate [Example A2-2, reference compound] |  | Isobornyl acrylate, SI = 8.30, manufactured by Osaka Organic Chemical Company |  |
| C=CC(=O)N(C)CC(=O)OC [Example A1-1, N-acryloyl-N-methyl glycine methyl ester] |  | (See Synthesis Example 1) SI = 1.00 | SI value (skin sensitivity) (female mice; OECD Test Guideline TG442B): 1.00; AMES test [1]: negative; PII (skin irritation) [2]: 0.5; Oral toxicity, cases died [3]: 0 out of 6; LD50 ([3]; in vivo, 2000 mg/kg): ≥ 2000 mg/kg |
| C=CC(=O)N1CCC(C(=O)OCC)CC1 [Example A1-7, N-acryloyl-piperidine-4-ethyl carboxylate] | (See Synthesis Example 7) SI = 1.70 |  |  |
| C=C(C)C(=O)OCC(CC)(COC(=O)C(=C)C)COC(=O)C(=C)C [Example B1-3, trimethylol propane trimethacrylate] |  | TMPT, SI = 1.03, manufactured by Shin Nakamura Chemical Co., Ltd. |  |
| C=CC(=O)N(C)[C@@H](C)C(=O)OC(C)C [Example A1-6, N-acryloyl-N-methyl alanine isopropyl ester] | (See Synthesis Example 6) SI = 1.21 |  |  |
| C=CC(=O)OCC(CC)(COC(=O)C=C)COC(=O)C=C [Example B2-1, reference compound] |  | M-3547, SI = 3.42, manufactured by TOAGOSEI CO., LTD. |  |
| C=CC(=O)N(CC(=O)OC)C(C)C [Example A1-3, N-acryloyl-N-isopropyl glycine methyl ester] | (See Synthesis Example 3) SI = 1.05 |  |  |
| C=C(C)C(=O)OCCO [Example A2-1, 2-hydroxyethyl methacrylate, reference compound] |  | 2-hydroxyethyl methacrylate, SI = 1.26, Manufactured by Tokyo Chemical Industry Co. Ltd.. |  |
| C=C(C)C(=O)OCC(COC(=O)C(=C)C)OC(C)=O [Example B1-6, 2-acetyl-1,3-glycerol dimethacrylate] | (See Synthesis Example 8) SI = 1.40 |  |  |
| C=C(C)C(=O)OCCOCCOC(=O)C(=C)C [Example B1-1, diethylene glycol dimethacrylate] | 2G, SI = 1.05, manufactured by Shin-Nakamura Chemical Co.,Ltd. |  |  |
